Legend:
[1] = tested on: NA with combination of G248R and K249E mutations; conditions: 'low levels' of resistance; cited from earlier work
[2] = target: influenza A/H3N2 NA, wild-type (baseline) at loci 93, 155, 251 (Influenza A virus (H3N2), UniProt V9SU56); assay type: biochemical; conditions: wild-type (baseline) at each locus; 10 samples tested; mean; read-out: mean drug concentration required to inhibit 50% NA activity

SMILES	IC50 increase [1]	IC50 [2]
CCOC(=O)C1=C[C@@H](OC(CC)CC)[C@H](NC(C)=O)[C@@H](N)C1 [Oseltamivir, oseltamivir]	< 10 fold	–
CC(=O)N[C@H]1[C@H]([C@H](O)[C@H](O)CO)OC(C(=O)O)=C[C@@H]1N=C(N)N [Zanamivir, zanamivir]	< 10 fold	–
CCC(CC)[C@H](NC(C)=O)[C@@H]1[C@H](O)[C@@H](C(=O)O)C[C@H]1N=C(N)N [Peramivir, peramivir]	–	0.2 ± 0.1 nM

— PMC4311985, “Molecular Surveillance of Antiviral Drug Resistance of Influenza A/H3N2 Virus in Singapore, 2009-2013” (PLoS ONE, 2015)
